Results published in ChEMBL document CHEMBL1201862, “PubChem BioAssay data set” (2004).
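Protocol summary: plate cells (96-well), add compound at 5 concentrations, incubate 48 h, interpolate endpoints linearly. GI50 is the concentration that inhibits growth by half.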 The source made the active and inactive calls. No stated cut-off is given here; in the data, active = GI50 up to about 1.1 µM and inactive = higher.

Key:
Assay in all cases: NCI-60 cell line screen, 48 h
NCI-H23 = test system: NCI-H23
OVCAR-8 = test system: OVCAR-8
K562 = test system: K562
OVCAR-4 = test system: OVCAR-4
MDA-N = test system: MDA-N
MDA-MB-435 = test system: MDA-MB-435
SW-620 = test system: SW-620
T47D = test system: T47D
MOLT-4 = test system: MOLT-4
UO-31 = test system: UO-31
PC-3 = test system: PC-3
DMS-114 = test system: DMS-114
LXFL 529 = test system: LXFL 529
OVCAR-5 = test system: OVCAR-5
Hs-578T = test system: Hs-578T
BT-549 = test system: BT-549
KM12 = test system: KM12
HCT-15 = test system: HCT-15
DMS-273 = test system: DMS-273
M14 = test system: M14

Row | Compound | GI50 (NCI-H23) | GI50 (OVCAR-8) | GI50 (K562) | GI50 (OVCAR-4) | GI50 (MDA-N) | GI50 (MDA-MB-435) | GI50 (SW-620) | GI50 (T47D) | GI50 (MOLT-4) | GI50 (UO-31) | GI50 (PC-3) | GI50 (DMS-114) | GI50 (LXFL 529) | GI50 (OVCAR-5) | GI50 (Hs-578T) | GI50 (BT-549) | GI50 (KM12) | GI50 (HCT-15) [µM] | GI50 (DMS-273) | GI50 (M14)
1 | CCSC(=O)N1c2ccc(OC)cc2C=CC1C#N (stereo not given) | 0.00509 µM (active) | 0.00569 µM (active) | 0.00632 µM (active) | 0.308 µM (active) | 3.06 nM (active) | 2.92 nM (active) | 0.00356 µM (active) | 228 µM (inactive) | 0.00345 µM (active) | < 0.01 µM (active) | 3.64 nM (active) | < 0.01 µM (active) | < 0.01 µM (active) | < 0.00993 µM (active) | 0.36 µM (active) | < 10 nM (active) | 0.00449 µM (active) | 0.00734 | < 0.01 µM (active) | 0.00601 µM (active)
2 | CCN1C(=O)N2C(OC)c3ccccc3C(Br)C2(OC)C1=O (stereo not given) | > 100 µM (inactive) | > 100 µM (inactive) | > 100 µM (inactive) | > 100 µM (inactive) |  |  | > 100 µM (inactive) |  | > 100 µM (inactive) | > 100 µM (inactive) |  | > 100 µM (inactive) | > 100 µM (inactive) | > 100 µM (inactive) |  |  | > 100 µM (inactive) | > 100 | > 100 µM (inactive) | > 100 µM (inactive)
3 | CCC1=C(C[C@H]2NCCc3cc(OC)c(OC)cc32)C[C@H]2c3cc(OC)c(OC)cc3CCN2C1 | 0.0191 µM (active) | 0.0272 µM (active) |  | 0.0143 µM (active) |  |  | 0.028 µM (active) |  | 0.0128 µM (active) | 0.316 µM (active) |  | 0.0166 µM (active) | 0.0316 µM (active) | 0.0521 µM (active) |  |  |  | 0.258 | 0.0274 µM (active) | 0.0235 µM (active)
4 | O=c1nc2n(c3nsnc13)CCO2 | > 100 µM (inactive) | > 100 µM (inactive) | > 100 µM (inactive) |  |  |  | > 100 µM (inactive) |  | > 100 µM (inactive) | > 100 µM (inactive) |  | 36.6 µM (inactive) | > 100 µM (inactive) | > 100 µM (inactive) |  |  | > 100 µM (inactive) | > 100 | > 100 µM (inactive) | > 100 µM (inactive)
5 | COC(=O)c1c(-c2ccccc2)cc2c3cc(-c4ccccc4)c(C(=O)OC)n3c3ccccc3n12 | > 100 µM (inactive) | > 100 µM (inactive) | > 100 µM (inactive) | 22.6 µM (inactive) |  |  | > 100 µM (inactive) |  | > 100 µM (inactive) | > 100 µM (inactive) |  | > 100 µM (inactive) | > 100 µM (inactive) | > 100 µM (inactive) |  |  | > 100 µM (inactive) | > 100 | 79.3 µM (inactive) | > 100 µM (inactive)
6 | CN1CCCC2[C@@H]3CCC4c5nonc5CC[C@]4(C)C3CC[C@@]21C (stereo not given in full) | > 100 µM (inactive) | > 100 µM (inactive) | 67.8 µM (inactive) | > 100 µM (inactive) |  |  | > 100 µM (inactive) |  | > 100 µM (inactive) | > 100 µM (inactive) |  | > 100 µM (inactive) | 84.7 µM (inactive) | > 100 µM (inactive) |  |  | > 100 µM (inactive) | 57.7 | 93.3 µM (inactive) | 
7 | Cc1c(N)nc(C2CC(=O)N2CC(N)C(N)=O)nc1C(=O)NC(C(=O)NC(C)C(O)C(C)C(=O)NC(C(=O)NCCc1nc(-c2nc(C(=O)NCCNCC(C)O)cs2)cs1)C(C)O)C(OC1OC(CO)C(O)C(O)C1OC1OC(CO)C(O)C(OC(N)=O)C1O)c1c[nH]cn1 (stereo not given) | 0.437 µM (active) | 3.36 µM (inactive) | 20.1 µM (inactive) | 7.57 µM (inactive) | > 50000 nM (inactive) | 3100 nM (inactive) | 13.9 µM (inactive) | > 5 µM (inactive) | 0.701 µM (active) | 0.813 µM (active) | > 50000 nM (inactive) | 0.397 µM (active) | > 38 µM (inactive) | 2.67 µM (inactive) | 2.3 µM (inactive) | > 50000 nM (inactive) | 19.9 µM (inactive) | 2.73 | 0.129 µM (active) | 2.26 µM (inactive)
8 | COC(=O)C1=C(\O)C[C@@]2(C)CC[C@@H](C(=O)OC)C2C/C=C\1C(=O)OC (stereo not given in full) |  | > 100 µM (inactive) |  | > 100 µM (inactive) |  |  | > 100 µM (inactive) |  | 46.6 µM (inactive) | 64 µM (inactive) |  | 29.4 µM (inactive) | 62.2 µM (inactive) | 46.3 µM (inactive) |  |  | > 100 µM (inactive) | > 100 | > 100 µM (inactive) | > 100 µM (inactive)
9 | CC1CCC2(CC1)NN=c1s/c(=C\c3ccc(O)cc3)c(=O)n1N2 (stereo not given) | > 100 µM (inactive) | > 100 µM (inactive) | > 100 µM (inactive) | > 100 µM (inactive) |  |  | > 100 µM (inactive) |  | > 100 µM (inactive) |  |  | > 100 µM (inactive) | > 100 µM (inactive) |  |  |  | > 100 µM (inactive) |  | > 100 µM (inactive) | > 100 µM (inactive)
10 | Nc1ccc(Cn2ccc3c4c(N)nc(N)nc4ccc32)cc1 | < 0.01 µM (active) | < 0.0127 µM (active) | < 0.01 µM (active) | 1.54 µM (inactive) | < 10 nM (active) | < 10 nM (active) | < 0.01 µM (active) | 0.818 µM (active) | < 0.0122 µM (active) | 0.406 µM (active) | 12.7 nM (active) | < 0.01 µM (active) | 0.0119 µM (active) | 0.0224 µM (active) | 2.28 µM (inactive) | 219 nM (active) | 0.0321 µM (active) | < 0.01 | < 0.01 µM (active) | < 0.0114 µM (active)
11 | COc1ccc(S(=O)(=O)N/N=C/CN2C(=O)c3ccccc3C2=O)cc1OC | > 100 µM (inactive) | > 100 µM (inactive) | > 100 µM (inactive) | > 100 µM (inactive) |  |  | > 100 µM (inactive) |  | > 100 µM (inactive) | > 100 µM (inactive) |  | > 100 µM (inactive) | > 100 µM (inactive) |  |  |  | > 100 µM (inactive) | > 100 | > 100 µM (inactive) | > 100 µM (inactive)
12 | CCOC(=O)NC(=O)c1cn(CCCCCCOC(=O)NCCCCCCNC(=O)OCCCCCCn2cc(C(=O)NC(=O)OCC)c(=O)[nH]c2=O)c(=O)[nH]c1=O |  | > 100 µM (inactive) | > 100 µM (inactive) | > 100 µM (inactive) |  |  | > 100 µM (inactive) |  | > 100 µM (inactive) | > 100 µM (inactive) |  | 67.9 µM (inactive) | > 100 µM (inactive) |  |  |  | > 100 µM (inactive) | > 100 | > 100 µM (inactive) | > 100 µM (inactive)
13 | CNC(=S)N(C)C(=S)Nn1c(=O)c(C)nn(C)c1=S | > 100 µM (inactive) | > 100 µM (inactive) | > 100 µM (inactive) | > 100 µM (inactive) |  |  | > 100 µM (inactive) |  | > 100 µM (inactive) |  |  | > 100 µM (inactive) | > 100 µM (inactive) | > 100 µM (inactive) |  |  | > 100 µM (inactive) | > 100 | > 100 µM (inactive) | > 100 µM (inactive)
14 | CCOC(=O)C1C=C2O[C@@H]3OC4(CCCCC4)O[C@@H]3C2[C@H]2C(=O)C=CC(=O)[C@@]12C(=O)OC (stereo not given in full) | 16.3 µM (inactive) | 6.41 µM (inactive) | 5.45 µM (inactive) | 9.31 µM (inactive) |  |  | 12.8 µM (inactive) |  | 2.7 µM (inactive) | 16.3 µM (inactive) |  | 4.75 µM (inactive) | 10.7 µM (inactive) | 17.1 µM (inactive) |  |  | 12.3 µM (inactive) | 9.4 | 8.65 µM (inactive) | 15.9 µM (inactive)
15 | O=CN/C=C/c1ccccc1O | > 100 µM (inactive) | > 100 µM (inactive) | > 31.6 µM (inactive) | > 100 µM (inactive) |  |  | > 100 µM (inactive) |  | > 100 µM (inactive) | > 100 µM (inactive) |  | > 100 µM (inactive) | > 100 µM (inactive) | > 100 µM (inactive) |  |  | > 100 µM (inactive) | > 100 | > 100 µM (inactive) | > 100 µM (inactive)
